{"source": "BigSolDB 2.1", "data": [{"smiles": "C=NCC#N", "values": [{"measurement": "solubility (mole fraction)", "setting": "in ethanol, 278.15 K", "result": 0.00175}, {"measurement": "solubility (mole fraction)", "setting": "in ethanol, 283.15 K", "result": 0.00213}, {"measurement": "solubility (mole fraction)", "setting": "in ethanol, 288.15 K", "result": 0.00253}, {"measurement": "solubility (mole fraction)", "setting": "in ethanol, 293.15 K", "result": 0.00303}, {"measurement": "solubility (mole fraction)", "setting": "in ethanol, 298.15 K", "result": 0.00357}, {"measurement": "solubility (mole fraction)", "setting": "in ethanol, 303.15 K", "result": 0.00424}, {"measurement": "solubility (mole fraction)", "setting": "in ethanol, 308.15 K", "result": 0.00501}, {"measurement": "solubility (mole fraction)", "setting": "in ethanol, 313.15 K", "result": 0.00595}, {"measurement": "solubility (mole fraction)", "setting": "in ethanol, 318.15 K", "result": 0.00695}, {"measurement": "solubility (mole fraction)", "setting": "in ethanol, 323.15 K", "result": 0.00814}, {"measurement": "solubility (mole fraction)", "setting": "in methanol, 278.15 K", "result": 0.00436}, {"measurement": "solubility (mole fraction)", "setting": "in methanol, 283.15 K", "result": 0.00516}, {"measurement": "solubility (mole fraction)", "setting": "in methanol, 288.15 K", "result": 0.00624}, {"measurement": "solubility (mole fraction)", "setting": "in methanol, 293.15 K", "result": 0.00747}, {"measurement": "solubility (mole fraction)", "setting": "in methanol, 298.15 K", "result": 0.00894}, {"measurement": "solubility (mole fraction)", "setting": "in methanol, 303.15 K", "result": 0.0107}, {"measurement": "solubility (mole fraction)", "setting": "in methanol, 308.15 K", "result": 0.0125}, {"measurement": "solubility (mole fraction)", "setting": "in methanol, 313.15 K", "result": 0.0145}, {"measurement": "solubility (mole fraction)", "setting": "in methanol, 318.15 K", "result": 0.0169}, {"measurement": "solubility (mole fraction)", "setting": "in methanol, 323.15 K", "result": 0.0196}, {"measurement": "solubility (mole fraction)", "setting": "in n-butanol, 278.15 K", "result": 0.000479}, {"measurement": "solubility (mole fraction)", "setting": "in n-butanol, 283.15 K", "result": 0.000578}, {"measurement": "solubility (mole fraction)", "setting": "in n-butanol, 288.15 K", "result": 0.000686}, {"measurement": "solubility (mole fraction)", "setting": "in n-butanol, 293.15 K", "result": 0.000819}, {"measurement": "solubility (mole fraction)", "setting": "in n-butanol, 298.15 K", "result": 0.000985}, {"measurement": "solubility (mole fraction)", "setting": "in n-butanol, 303.15 K", "result": 0.00115}, {"measurement": "solubility (mole fraction)", "setting": "in n-butanol, 308.15 K", "result": 0.00139}, {"measurement": "solubility (mole fraction)", "setting": "in n-butanol, 313.15 K", "result": 0.00162}, {"measurement": "solubility (mole fraction)", "setting": "in n-butanol, 318.15 K", "result": 0.00191}, {"measurement": "solubility (mole fraction)", "setting": "in n-butanol, 323.15 K", "result": 0.00224}, {"measurement": "solubility (mole fraction)", "setting": "in n-propanol, 278.15 K", "result": 0.00099}, {"measurement": "solubility (mole fraction)", "setting": "in n-propanol, 283.15 K", "result": 0.00125}, {"measurement": "solubility (mole fraction)", "setting": "in n-propanol, 288.15 K", "result": 0.00151}, {"measurement": "solubility (mole fraction)", "setting": "in n-propanol, 293.15 K", "result": 0.00183}, {"measurement": "solubility (mole fraction)", "setting": "in n-propanol, 298.15 K", "result": 0.00222}, {"measurement": "solubility (mole fraction)", "setting": "in n-propanol, 303.15 K", "result": 0.00266}, {"measurement": "solubility (mole fraction)", "setting": "in n-propanol, 308.15 K", "result": 0.00315}, {"measurement": "solubility (mole fraction)", "setting": "in n-propanol, 313.15 K", "result": 0.0037}, {"measurement": "solubility (mole fraction)", "setting": "in n-propanol, 318.15 K", "result": 0.00427}, {"measurement": "solubility (mole fraction)", "setting": "in n-propanol, 323.15 K", "result": 0.00499}, {"measurement": "solubility (mole fraction)", "setting": "in water, 278.15 K", "result": 0.00083}, {"measurement": "solubility (mole fraction)", "setting": "in water, 283.15 K", "result": 0.000998}, {"measurement": "solubility (mole fraction)", "setting": "in water, 288.15 K", "result": 0.00119}, {"measurement": "solubility (mole fraction)", "setting": "in water, 293.15 K", "result": 0.00143}, {"measurement": "solubility (mole fraction)", "setting": "in water, 298.15 K", "result": 0.00171}, {"measurement": "solubility (mole fraction)", "setting": "in water, 303.15 K", "result": 0.00198}, {"measurement": "solubility (mole fraction)", "setting": "in water, 308.15 K", "result": 0.00235}, {"measurement": "solubility (mole fraction)", "setting": "in water, 313.15 K", "result": 0.00274}, {"measurement": "solubility (mole fraction)", "setting": "in water, 318.15 K", "result": 0.0032}, {"measurement": "solubility (mole fraction)", "setting": "in water, 323.15 K", "result": 0.00371}]}]}
